# Experiment: solubility in aqueous media
# Type: physicochemical
# Settings: over the physiologically relevant pH range
# From the text: Of particular interest is N-{3-Chloro-4-[(3-fluorobenzyl)oxy]phenyl}-6-[5-({[2-(methanesulphonyl)ethyl]amino}methyl)-2-furyl]-4-quinazolinamine ditosylate monohydrate.
structure (smiles),measurement,value
"CS(=O)(=O)CCNCc1ccc(-c2ccc3ncnc(Nc4ccc(OCc5cccc(F)c5)c(Cl)c4)c3c2)o1 [GW572016, N-{3-Chloro-4-[(3-fluorobenzyl)oxy]phenyl}-6-[5-({[2-(methanesulphonyl)ethyl]amino}methyl)-2-furyl]-4-quinazolinamine]",solubility in aqueous media,poorly soluble

# Source: patent US8821927B2, “Pharmaceutical composition” (SmithKline Beecham (Cork) Limited, priority 2005, dated 2014)
